Laboratory results as given in ChEMBL document CHEMBL5244281, “Tackling multidrug-resistant Staphylococcus aureus by natural products and their analogues acting as NorA efflux pump inhibitors” (Bioorg Med Chem, 2023).
pIC50: −log10 of the molar value. Converted amounts (≈) assume the structure as drawn.

What was measured:
[1] = test system: Staphylococcus aureus; assay: Synergistic antimicrobial activity against Staphylococcus aureus 1199B overexpressing NorA efflux pump assessed as norfloxacin MIC incubated for 24 hrs by broth dilution method; assay type: functional
[2] = test system: Staphylococcus aureus; assay: Antibacterial activity against fluoroquinolone-resistant Staphylococcus aureus 1199B overexpressing NorA gene assessed as bacterial growth inhibition by microdilution method; assay type: functional
[3] = molecular target: Quinolone resistance protein NorA (Staphylococcus aureus, UniProt P0A0J7); assay: Inhibition of NorA efflux pump in Staphylococcus aureus 1199B overexpressing NorA gene assessed as reduction in EtBr efflux inhibition by spectrofluorometric assay
[4] = molecular target: T1, Quinolone resistance protein NorA (Staphylococcus aureus) (UniProt P0A0J7); assay: Inhibition of NorA efflux pump in Staphylococcus aureus 1199B overexpressing NorA efflux pump assessed as reduction in ciprofloxacin MIC at […] by resazurin based assay (Rvb= 6.25 ug/ml)
T1 sequence (whole entry): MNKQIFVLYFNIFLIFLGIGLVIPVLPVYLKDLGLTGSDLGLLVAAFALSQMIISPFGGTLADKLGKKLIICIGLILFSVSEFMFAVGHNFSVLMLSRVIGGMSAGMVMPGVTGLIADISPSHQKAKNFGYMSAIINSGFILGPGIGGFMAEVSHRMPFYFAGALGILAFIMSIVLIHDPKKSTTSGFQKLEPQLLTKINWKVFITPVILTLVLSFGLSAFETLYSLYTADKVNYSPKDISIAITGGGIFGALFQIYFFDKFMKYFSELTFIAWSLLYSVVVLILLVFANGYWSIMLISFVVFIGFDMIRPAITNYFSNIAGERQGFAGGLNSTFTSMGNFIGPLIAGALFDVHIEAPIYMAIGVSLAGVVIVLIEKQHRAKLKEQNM

[5] = molecular target: T1, Quinolone resistance protein NorA (Staphylococcus aureus); assay: Inhibition of NorA efflux pump in Staphylococcus aureus 1199B overexpressing NorA gene assessed as efflux inhibition at 2 mg/L by Hoechst 33342 staining based fluorescence assay
[6] = test system: Staphylococcus aureus; assay: Synergistic antibacterial activity against Staphylococcus aureus 1199B overexpressing NorA efflux protein assessed as fractional inhibitory concentration index in presence of moxifloxacin by checkerboard assay; assay type: functional
[7] = test system: Staphylococcus aureus; assay: Synergistic antibacterial activity against Staphylococcus aureus 1199B overexpressing NorA efflux protein assessed as fractional inhibitory concentration index in presence of norfloxacin by checkerboard assay; assay type: functional
[8] = test system: Staphylococcus aureus; assay: Synergistic antibacterial activity against Staphylococcus aureus 1199B overexpressing NorA efflux protein assessed as fractional inhibitory concentration index in presence of ciprofloxacin by checkerboard assay; assay type: functional
[9] = test system: Staphylococcus aureus; assay: Antibacterial activity against Staphylococcus aureus 1199B overexpressing NorA efflux protein assessed as bacterial growth inhibition; assay type: functional
[10] = test system: Staphylococcus aureus; assay: Synergistic antibacterial activity against Staphylococcus aureus 1199B overexpressing NorA efflux protein assessed as fractional inhibitory concentration index in presence of chloramphenicol by checkerboard assay; assay type: functional
[11] = test system: Staphylococcus aureus; assay: Antibacterial activity against Staphylococcus aureus K1758 with NorA deletion mutant assessed as bacterial growth inhibition; assay type: functional
[12] = test system: Staphylococcus aureus; assay: Synergistic antimicrobial activity against Staphylococcus aureus 1199B overexpressing NorA efflux pump assessed as reduction in norfloxacin MIC incubated for 24 hrs by MTT colorimetric assay (Rvb= 128 mg/ml); assay type: functional
[13] = test system: Staphylococcus aureus; assay: Synergistic antimicrobial activity against Staphylococcus aureus 1199B overexpressing NorA efflux pump assessed as fractional inhibitory concentration index incubated for 24 hrs by checkerboard method; assay type: functional
[14] = molecular target: ATP-dependent translocase ABCB1 (Homo sapiens, UniProt P08183); assay: Inhibition of P-gp mediated efflux in human LS180 cells using digoxin as substrate incubated for 90 mins by fluorescence assay; assay type: cell-based
[15] = test system: LS180; assay: Cytotoxicity against human LS180 cells; assay type: functional, cell-based
[16] = molecular target: T1, Quinolone resistance protein NorA (Staphylococcus aureus); assay: Inhibition of NorA efflux pump in Staphylococcus aureus 1199B overexpressing NorA efflux pump assessed as decrease in norfloxacin MIC at 1/4 times MIC and measured for 45 mins in presence of norfloxacin by fluorimetric analysis (Rvb=32 ug/ml)
[17] = test system: Staphylococcus aureus; assay: Synergistic antibacterial activity against Staphylococcus aureus 1199B overexpressing NorA efflux pump assessed as fractional inhibitory concentration index in presence of ciprofloxacin incubated for 18 hrs by checkerboard assay; assay type: functional
[18] = test system: Staphylococcus aureus; assay: Antibacterial activity against Staphylococcus aureus 1199B overexpressing NorA efflux pump assessed as bacterial growth inhibition incubated for 18 hrs by broth dilution method; assay type: functional
[19] = molecular target: T1, Quinolone resistance protein NorA (Staphylococcus aureus); assay: Inhibition of NorA efflux pump in Staphylococcus aureus 1199B overexpressing NorA efflux pump assessed as decrease in ciprofloxacin MIC at 1/4 times MIC and measured for 45 mins in presence of ciprofloxacin by fluorimetric analysis (Rvb=8 ug/ml)
[20] = test system: Staphylococcus aureus; assay: Antibacterial activity against Staphylococcus aureus K1758 with NorA knockout assessed as bacterial growth inhibition incubated for 18 hrs by broth dilution method; assay type: functional
[21] = test system: Staphylococcus aureus; assay: Synergistic antibacterial activity against Staphylococcus aureus 1199B overexpressing NorA efflux pump assessed as fractional inhibitory concentration index in presence of norfloxacin incubated for 18 hrs by checkerboard assay; assay type: functional
[22] = test system: Staphylococcus aureus; assay: Synergistic antibacterial activity against methicillin-susceptible Staphylococcus aureus 1199B overexpressing NorA efflux pump assessed as fractional inhibitory concentration index at 64 ug/ml incubated for 18 to 24 hrs in presence of norfloxacin by checkerboard microdilution assay; assay type: functional; settings: dose 64 µg/ml; time 18-24 hrs
[23] = test system: Staphylococcus aureus; assay: Synergistic antibacterial activity against methicillin-susceptible Staphylococcus aureus 1199B overexpressing NorA efflux pump assessed as reduction in norfloxacin MIC at 64 ug/ml incubated for 18 to 24 hrs in presence of norfloxacin by MTT assay; assay type: functional; settings: dose 64 µg/ml, time 18-24 hrs
[24] = test system: Staphylococcus aureus; assay: Antibacterial activity against Staphylococcus aureus RN4220 expressing MsrA efflux protein assessed as bacterial growth inhibition incubated for 24 hrs by resazurin based microdilution assay; assay type: functional
[25] = test system: Staphylococcus aureus; assay: Antibacterial activity against wild type Staphylococcus aureus 1199 assessed as bacterial growth inhibition incubated for 24 hrs by resazurin based microdilution assay; assay type: functional
[26] = test system: Staphylococcus aureus; assay: Antibacterial activity against Staphylococcus aureus IS-58 expressing TetK efflux protein assessed as bacterial growth inhibition incubated for 24 hrs by resazurin based microdilution assay; assay type: functional
[27] = test system: Staphylococcus aureus; assay: Antibacterial activity against Staphylococcus aureus 1199B expressing NorA efflux protein assessed as bacterial growth inhibition incubated for 24 hrs by resazurin based microdilution assay; assay type: functional
[28] = test system: MCF7; assay: Cytotoxicity against human MCF7 cells assessed as reduction in cell viability by sulforhodamine B assay; assay type: functional, cell-based
[29] = test system: A549; assay: Cytotoxicity against human A549 cells assessed as reduction in cell viability by sulforhodamine B assay; assay type: functional, cell-based
[30] = test system: Staphylococcus haemolyticus; assay: Antibacterial activity against Staphylococcus haemolyticus assessed as bacterial growth inhibition by microdilution assay; assay type: functional
[31] = test system: WI-38; assay: Cytotoxicity against human WI-38 cells assessed as reduction in cell viability by sulforhodamine B assay; assay type: functional, cell-based
[32] = test system: Staphylococcus haemolyticus; assay: Antibacterial activity against Staphylococcus haemolyticus grown in blood assessed as bacterial growth inhibition by microdilution assay; assay type: functional
[33] = molecular target: UDP-N-acetylmuramoyl-L-alanyl-D-glutamate--2,6-diaminopimelate ligase (Mycobacterium tuberculosis (strain ATCC 25618 / H37Rv), UniProt P9WJL3); assay: Inhibition of MurE ligase activity in Mycobacterium tuberculosis assessed as release of inorganic phosphate by hydrolysis of ATP using UDP-MurNAc-l-Ala-d-Glu as substrate in presence of ATP incubated for 30 mins by absorbance assay
[34] = test system: Staphylococcus aureus; assay: Antibacterial activity against Staphylococcus aureus 1199B overexpressing NorA efflux protein assessed as bacterial growth inhibition incubated for 24 hrs by microdilution method; assay type: functional
[35] = test system: Staphylococcus aureus; assay: Antibacterial activity against wild type Staphylococcus aureus 1199 assessed as bacterial growth inhibition incubated for 24 hrs by microdilution method; assay type: functional

Compound: COC[C@@H](Cc1ccc(OC)c(OC)c1)[C@@H](COC)Cc1ccc(OC)c(OC)c1
- MIC [1]: 12.7 µg/mL

Compound: C[C@@H]1O[C@@H](Oc2c(-c3ccc(O)cc3)oc3cc(O)cc(O)c3c2=O)[C@H](OC(=O)/C=C/c2ccc(O)cc2)[C@H](O)[C@H]1OC(=O)/C=C/c1ccc(O)cc1
- MIC [2]: 35 µM
- pIC50 [3]: 5.70
- MIC [4]: 0.78 µg/mL
- inhibition [5]: 40%

Compound: Nc1ccccc1-c1cc2ccccc2[nH]1
- fractional inhibitory concentration index (FICI) [6]: >=0.5
- fractional inhibitory concentration index (FICI) [7]: >=0.5
- fractional inhibitory concentration index (FICI) [8]: >=0.5
- MIC [9]: 128 µg/mL (≈ 615 µM)
- fractional inhibitory concentration index (FICI) [10]: >=0.5
- MIC [11]: 64 µg/mL (≈ 307 µM)

Compound: C/C=C/C1=CC2C(=CC1=O)O[C@H](c1ccc(OC)c(OC)c1)[C@H]2C (stereo not given in full)
- MIC [12]: 32 mg/mL
- fractional inhibitory concentration index (FICI) [13]: 0.25

Compound: CC(=O)c1c(-c2ccc(F)cc2)cn(-c2ccc(C)cc2)c1C
- pIC50 [14]: 4.95
- pIC50 [15]: < 4.00

Compound: COc1cc(/C=C/C(=O)N/N=C/c2ccc[nH]2)cc(OC)c1OC
- MIC [16]: 1 µg/mL
- fractional inhibitory concentration index (FICI) [17]: 0.56
- MIC [18]: 64 µg/mL (≈ 194 µM)
- MIC [19]: 0.5 µg/mL
- MIC [20]: 64 µg/mL (≈ 194 µM)
- fractional inhibitory concentration index (FICI) [21]: 0.56

Compound: COc1cc2c(cc1O)CC[n+]1cc3c(OC)c(OC)ccc3cc1-2 [JATRORRHIZINE]
- fractional inhibitory concentration index (FICI) [22]: 0.375
- MIC [23]: 16 µg/mL

Compound: CC1=CC(=O)c2ccccc2C1=O [MENADIONE]
- MIC [24]: 64 µg/mL (≈ 372 µM)
- MIC [25]: 64 µg/mL (≈ 372 µM)
- MIC [26]: 64 µg/mL (≈ 372 µM)
- MIC [27]: 64 µg/mL (≈ 372 µM)

Compound: CC[C@H](C)C(=O)c1c(O)cc(O)cc1OC/C=C(\C)CCC=C(C)C [OLYMPICIN A]
- pIC50 [28]: 4.90
- pIC50 [29]: 4.98
- MIC [30]: ≥ 16 µg/mL
- pIC50 [31]: 5.05
- MIC [32]: > 32 µg/mL
- pIC50 [33]: 4.12

Compound: O=C(OC[C@H]1O[C@@H](OC(=O)c2cc(O)c(O)c(OC(=O)c3cc(O)c(O)c(O)c3)c2)[C@H](OC(=O)c2cc(O)c(O)c(OC(=O)c3cc(O)c(O)c(O)c3)c2)[C@@H](OC(=O)c2cc(O)c(O)c(OC(=O)c3cc(O)c(O)c(O)c3)c2)[C@@H]1OC(=O)c1cc(O)c(O)c(OC(=O)c2cc(O)c(O)c(O)c2)c1)c1cc(O)c(O)c(OC(=O)c2cc(O)c(O)c(O)c2)c1 [TANNIC ACID]
- MIC [34]: ≥ 1020 µg/mL
- MIC [35]: ≥ 1020 µg/mL
